Earlier results in patent publication US12409165B2, “Pharmaceutical composition comprising eltrombopag bis(monoethanolamine)” (SYNTHON B.V., priority 2019, dated 2025).

Experiments:
[1] = qualitative statement in the background, no method given
[2] = qualitative statement in the background, no method given; remark: listed apart in the source

permeability [1]: medium
solubility [2]: low
SMILES: CC1=NN(c2ccc(C)c(C)c2)C(=O)/C1=N\Nc1cccc(-c2cccc(C(=O)O)c2)c1O.NCCO.NCCO [Eltrombopag bis(monoethanolamine), 3′-{(2Z)-2-[1-(3,4-dimethylphenyl)-3-methyl-5-oxo-1,5-dihydro-4H-pyrazol-4-ylidene]hydrazino}-2′-hydroxy-3-biphenyl-carboxylic acid bis(monoethanolamine)]
